Experimental findings from patent US20240245658A1, “TAAR1 AND SEROTONIN MODULATORS, AND PHARMACEUTICAL COMPOSITIONS, AND METHODS OF USE THEREOF” (Sunovion Pharmaceuticals Inc., priority 2021, published 2024) are described below.

Holding throughout (format): cell-based
One test concerns the target T1, human TAAR1 receptors (Homo sapiens, UniProt Q96RJ0).
T1 construct: host or cells: CHO-K1
T1 sequence (Q96RJ0 1-339): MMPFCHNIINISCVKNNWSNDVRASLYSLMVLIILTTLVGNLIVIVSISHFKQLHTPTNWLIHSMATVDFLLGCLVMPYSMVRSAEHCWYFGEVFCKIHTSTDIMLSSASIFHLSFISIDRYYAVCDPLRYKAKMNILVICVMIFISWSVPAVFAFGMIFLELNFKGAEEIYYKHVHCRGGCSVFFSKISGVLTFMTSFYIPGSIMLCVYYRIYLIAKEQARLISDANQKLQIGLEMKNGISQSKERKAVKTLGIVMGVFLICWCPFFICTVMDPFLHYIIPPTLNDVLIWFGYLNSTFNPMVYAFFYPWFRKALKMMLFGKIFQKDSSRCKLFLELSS
The test can be described thus: TAAR1 Agonism Assay: cAMP HTRF assay for Gs coupled receptor TAAR1 (Euroscreen FAST-0987C). The conditions noted are these: CHO-K1 cells expressing human TAAR1, cAMP HTRF. Here is the method: Dose response curves were performed in parallel with the reference compound, tyramine.
For the TAAR1 agonist test (performed in a 384 well plate): 5 μl of cells (about 3,000 cells) were mixed with 5 μl of the test compound diluted in assay buffer and then incubated for about 30 minutes at about room temperature. After addition of the lysis buffer containing cAMP-d2 and anti-cAMP cryptate detection reagents, plates were incubated for about a 1-hour incubation at about room temperature, and fluorescence ratios were measured according to the manufacturer specifications, with the HTRF (Homogeneous Time Resolved Fluorescence) kit (cAMP Gs dynamic kit, Cisbio Bioassays, 62AM4PEJ).
(§1) Compounds were tested at the following nanomolar concentrations, in duplicate: 0.3 nM, 1 nM, 3 nM, 10 nM, 30 nM, 100 nM, 300 nM, 1,000 nM, 3,000 nM, and 10,000 nM.

A further test addresses T2, human 5-HT2A receptor (Homo sapiens, UniProt P28223).
T2 construct: host or cells: CHO-K1
Nature of the test: 5HT2A Antagonism Assay (Euroscreen FAST-05051), IP-One HTRF. Here is the method: 5HT2A Antagonism Assay Protocol (Euroscreen FAST-05051)
CHO-K1 cells expressing the human 5-HT2A receptor grown to mid-log phase in culture media without antibiotics, were detached with PBS-EDTA, centrifuged, and resuspended in the IP-One Gq kit (Cisbio Bioassays, 62IPAPEC) stimulation buffer.
For antagonist testing in a 384 well plate: 5 μl of cells (20,000 cells) were mixed with 5 μl of a mix of test compound and reference agonist (for a final assay concentration corresponding to its EC80) diluted in stimulation buffer. The plate was incubated for 60 minutes at 37° C. in a humidified atmosphere of 95% air with 5% CO2, then 5 μL of IP1-d2 and anti-IP1 cryptate detection reagents were added to each well, the plates were incubated for about 1 hour at about room temperature. Fluorescence ratios are measured according to the manufacturer's specification (IP-One Gq kit (Cisbio Bioassays, 62IPAPEC).
Dose response curves were performed in parallel with reference compounds (e.g., α-methyl-5-HT. Compounds were tested at the following nanomolar concentrations, in duplicate: 0.3 nM, 1 nM, 3 nM, 10 nM, 30 nM, 100 nM, 300 nM, 1,000 nM, 3,000 nM, and 10,000 nM

The target of the next test is T3, human 5-HT7 receptor (Homo sapiens, UniProt P34969).
T3 construct: host or cells: CHO-K1
T3 sequence (P34969 whole entry): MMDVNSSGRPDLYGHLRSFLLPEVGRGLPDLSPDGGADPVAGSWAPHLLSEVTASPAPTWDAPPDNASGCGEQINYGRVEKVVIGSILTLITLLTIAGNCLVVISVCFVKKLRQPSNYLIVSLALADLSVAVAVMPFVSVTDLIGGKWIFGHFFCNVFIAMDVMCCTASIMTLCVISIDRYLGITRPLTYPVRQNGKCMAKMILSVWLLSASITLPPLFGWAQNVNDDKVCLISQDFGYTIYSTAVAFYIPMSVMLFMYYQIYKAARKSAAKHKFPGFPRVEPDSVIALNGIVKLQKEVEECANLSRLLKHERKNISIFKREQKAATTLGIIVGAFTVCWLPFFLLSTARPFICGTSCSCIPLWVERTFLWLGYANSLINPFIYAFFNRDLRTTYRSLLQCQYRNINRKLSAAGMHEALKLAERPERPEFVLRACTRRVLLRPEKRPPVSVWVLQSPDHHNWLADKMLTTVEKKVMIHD
Nature of the test: 5HT7 Antagonism Assay (Euroscreen FAST-0499C), cAMP HTRF. Conditions: CHO-K1 cells expressing human 5-HT7, reference agonist at EC80, cAMP HTRF. Here is the method: 5HT7 Antagonism Assay Protocol (Euroscreen FAST-0499C)
CHO-K1 cells expressing the human 5-HT7 receptor, grown prior to the test in media without antibiotic, were detached by gentle flushing with PBS-EDTA (5 mM EDTA), recovered by centrifugation and resuspended in assay buffer (Krebs-Ringer HEPES buffer: 5 mM KCl, 1.25 mM MgSO4, 124 mM NaCl, 25 mM HEPES, 13.3 mM Glucose, 1.25 mM KH2PO4, 1.45 mM CaCl2), 0.5 g/l BSA, supplemented with 1 mM IBMX).
Dose response curves were performed in parallel with reference compounds (e.g., 5-carboxamidotryptamine (5-CT)).
For antagonist testing in a 384 well plate: 5 μl of cells (3000 cells) were mixed with 5 μl of a mix of test compound and reference agonist (for a final assay concentration corresponding to its EC80) diluted in assay buffer. The plates were then incubated for about 30 minutes at about room temperature. After addition of the lysis buffer containing cAMP-d2 and anti-cAMP cryptate detection reagents, plates were incubated for about 1 hour at about room temperature, and fluorescence ratios were measured according to the manufacturer's specifications (HTRF kit: cAMP Gs dynamic kit, Cisbio Bioassays, 62AM4PEJ).
as §1
Background: In TR-FRET formats the signal depends on donor and acceptor labels being close together.

Setting [1] is: 5-HT2A (IC50), CHO-K1 cells expressing human 5-HT2A, reference agonist at EC80, IP-One.
[2] abbreviates: read-out: 5-HT2A (IC50), CHO-K1 cells expressing human 5-HT2A, reference agonist at EC80, IP-One.
[3] abbreviates: CHO-K1 cells expressing human 5-HT2A, reference agonist at EC80, IP-One, read-out: 5-HT2A (IC50).

Where two headings read alike, the source gives them in different places. Some results are limits rather than exact numbers.

T2 sequence (P28223 whole entry): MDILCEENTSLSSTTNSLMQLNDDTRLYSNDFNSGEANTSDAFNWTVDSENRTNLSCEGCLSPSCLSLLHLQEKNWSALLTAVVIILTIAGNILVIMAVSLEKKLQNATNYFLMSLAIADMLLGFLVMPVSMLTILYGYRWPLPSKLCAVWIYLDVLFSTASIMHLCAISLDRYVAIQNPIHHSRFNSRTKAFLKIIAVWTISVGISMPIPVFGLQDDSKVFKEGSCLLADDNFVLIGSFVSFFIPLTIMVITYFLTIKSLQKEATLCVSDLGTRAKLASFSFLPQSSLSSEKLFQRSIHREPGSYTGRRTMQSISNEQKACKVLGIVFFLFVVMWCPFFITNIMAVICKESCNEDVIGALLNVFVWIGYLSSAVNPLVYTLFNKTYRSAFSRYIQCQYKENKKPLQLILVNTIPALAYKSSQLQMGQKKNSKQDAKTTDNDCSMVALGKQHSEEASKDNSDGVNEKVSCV

What is called EC50 is the midpoint of the concentration-response curve. The term IC50 denotes the concentration that inhibits the measured activity by half. Compound `CNCC1Cc2ccccc2Oc2cc(F)ccc21` (single isomer, unassigned) [Compound 3, (R*)-1-(7-fluoro-10,11-dihydrodibenzo[b,f]oxepin-10-yl)-N-methylmethanamine] came in with an EC50 at human TAAR1 receptors above 10000 nM. Further, the IC50 at human 5-HT2A receptor (setting [1]) is below 1000 nM; at human 5-HT7 receptor, 1000 to 10000 nM.
At human TAAR1 receptors, `CNCC1Cc2ccccc2Oc2cc(F)ccc21` (single isomer, unassigned) [Compound 4, (S*)-1-(7-fluoro-10,11-dihydrodibenzo[b,f]oxepin-10-yl)-N-methylmethanamine] gave an EC50 below 1000 nM. Besides, the IC50 at human 5-HT2A receptor (setting [2]) was below 1000 nM; at human 5-HT7 receptor, 1000 to 10000 nM.
Turning to `CNCC1Cc2ccccc2Oc2cccnc21` (single isomer, unassigned) [Compound 5, (S*)-1-(10,11-dihydrobenzo[6,7]oxepino[3,2-b]pyridin-11-yl)-N-methylmethanamine], the EC50 at human TAAR1 receptors is below 1000 nM. The IC50 at human 5-HT2A receptor (setting [1]) and on human 5-HT7 receptor was below 1000 nM each time.
The compound `CNCC1Cc2ccccc2Oc2cccnc21` (single isomer, unassigned) [Compound 6, (R*)-1-(10,11-dihydrobenzo-[6,7]oxepino[3,2-b]pyridin-11-yl)-N-methylmethanamine] yielded an EC50 on human TAAR1 receptors below 1000 nM. The IC50 on human 5-HT2A receptor (setting [1]) was 1000 to 10000 nM; on human 5-HT7 receptor it was at least 10000 nM.
`NCC1Cc2ccccc2Oc2cccnc21` (single isomer, unassigned) [Compound 7, (S*)-(10,11-dihydrobenzo[6,7]oxepino[3,2-b]pyridin-11-yl)methanamine] returned a concentration giving a half-maximal response (EC50) at human TAAR1 receptors below 1000 nM. The results for the IC50 on human 5-HT2A receptor (setting [1]) and at human 5-HT7 receptor were above 10000 nM and 1000 to 10000 nM, respectively.
In the case of `NCC1Cc2ccccc2Oc2cccnc21` (single isomer, unassigned) [Compound 8, (R*)-(10,11-dihydrobenzo[6,7]oxepino[3,2-b]pyridin-11-yl)methanamine], the EC50 on human TAAR1 receptors is below 1000 nM. Further, the IC50 at human 5-HT2A receptor (setting [2]) is above 10000 nM; on human 5-HT7 receptor it was at least 10000 nM.
Consider `NCC1Cc2cccnc2Oc2ccccc21` (single isomer, unassigned) [Compound 17, (R*)-(5,6-dihydrobenzo[6,7]oxepino[2,3-b]pyridin-6-yl)methanamine], for which the EC50 on human TAAR1 receptors was below 1000 nM. For the same compound, the IC50 on human 5-HT2A receptor (setting [1]) is below 1000 nM; on human 5-HT7 receptor, at least 10000 nM.
The compound `NCC1Cc2cccnc2Oc2ccccc21` (single isomer, unassigned) [Compound 18, (S*)-(5,6-dihydrobenzo[6,7]oxepino[2,3-b]pyridin-6-yl)methanamine] gave an EC50 on human TAAR1 receptors above 10000 nM. The IC50 at human 5-HT2A receptor (setting [1]) is above 10000 nM; at human 5-HT7 receptor it was at least 10000 nM.
For the compound `CNCC1Cc2cccnc2Oc2ccccc21` (single isomer, unassigned) [Compound 19, (R*)-1-(5,6-dihydrobenzo[6,7]oxepino[2,3-b]pyridin-6-yl)-N-methylmethanamine], the EC50 on human TAAR1 receptors lay within 1000 to 10000 nM. The results for the IC50 at human 5-HT2A receptor (setting [3]) and on human 5-HT7 receptor were 1000 to 10000 nM and at least 10000 nM, respectively.
Turning to `CNCC1Cc2cccnc2Oc2ccccc21` (single isomer, unassigned) [Compound 20, (S*)-1-(5,6-dihydrobenzo[6,7]oxepino[2,3-b]pyridin-6-yl)-N-methylmethanamine], on human TAAR1 receptors, the EC50 was above 10000 nM. Moreover, the IC50 was above 10000 nM on human 5-HT2A receptor (setting [3]) and at least 10000 nM at human 5-HT7 receptor.
With `NCC1Cc2ccncc2Oc2ccccc21` (single isomer, unassigned) [Compound 21, (R*)-(5,6-dihydrobenzo[6,7]oxepino[2,3-c]pyridin-6-yl)methanamine], the EC50 at human TAAR1 receptors was below 1000 nM. In addition, the results for the IC50 on human 5-HT2A receptor (setting [1]) and at human 5-HT7 receptor were 1000 to 10000 nM and at least 10000 nM, respectively.
`NCC1Cc2ccncc2Oc2ccccc21` (single isomer, unassigned) [Compound 22, (S*)-(5,6-dihydrobenzo[6,7]oxepino[2,3-c]pyridin-6-yl)methanamine] yielded an EC50 on human TAAR1 receptors of 1000 to 10000 nM. Further, the IC50 is 1000 to 10000 nM on human 5-HT2A receptor (setting [2]) and at least 10000 nM at human 5-HT7 receptor.
In turn, `CNCC1Cc2ccncc2Oc2ccccc21` (single isomer, unassigned) [Compound 23, (R*)-1-(5,6-dihydrobenzo[6,7]oxepino[2,3-c]pyridin-6-yl)-N-methylmethanamine] gave an EC50 at human TAAR1 receptors below 1000 nM. In addition, the IC50 on human 5-HT2A receptor (setting [1]) and on human 5-HT7 receptor was below 1000 nM throughout.
The compound `CNCC1Cc2ccncc2Oc2ccccc21` (single isomer, unassigned) [Compound 24, (S*)-1-(5,6-dihydrobenzo[6,7]oxepino[2,3-c]pyridin-6-yl)-N-methylmethanamine] returned a concentration for a half-maximal effect (EC50) at human TAAR1 receptors above 10000 nM. In addition, the values for the IC50 on human 5-HT2A receptor (setting [2]) and on human 5-HT7 receptor were below 1000 nM and 1000 to 10000 nM, respectively.
In the case of `NCC1Cc2ncccc2Oc2ccccc21` (single isomer, unassigned) [Compound 29, (R*)-(10,11-dihydrobenzo[6,7]oxepino[3,2-b]pyridin-10-yl)methanamine], on human TAAR1 receptors, the EC50 lay in the range of 1000 to 10000 nM. Besides, the IC50 at human 5-HT2A receptor (setting [1]) is 1000 to 10000 nM; at human 5-HT7 receptor, at least 10000 nM.
On human TAAR1 receptors, `NCC1Cc2ncccc2Oc2ccccc21` (single isomer, unassigned) [Compound 30, (S*)-(10,11-dihydrobenzo[6,7]oxepino[3,2-b]pyridin-10-yl)methanamine] gave an EC50 below 1000 nM. Also, the IC50 on human 5-HT2A receptor (setting [2]) is 1000 to 10000 nM; at human 5-HT7 receptor, at least 10000 nM.
In the case of `CNCC1Cc2ncccc2Oc2ccccc21` (single isomer, unassigned) [Compound 31, (R*)-1-(10,11-dihydrobenzo[6,7]oxepino[3,2-b]pyridin-10-yl)-N-methylmethanamine], the concentration for a half-maximal effect (EC50) at human TAAR1 receptors was above 10000 nM. Moreover, the results for the IC50 at human 5-HT2A receptor (setting [1]) and on human 5-HT7 receptor were below 1000 nM and at least 10000 nM, respectively.
On human TAAR1 receptors, `CNCC1Cc2ncccc2Oc2ccccc21` (single isomer, unassigned) [Compound 32, (S*)-1-(10,11-dihydrobenzo[6,7]oxepino[3,2-b]pyridin-10-yl)-N-methylmethanamine] displayed an EC50 below 1000 nM. Further, the figures for the IC50 on human 5-HT2A receptor (setting [2]) and on human 5-HT7 receptor were below 1000 nM and at least 10000 nM, respectively.
On to `NCC1Cc2ncccc2Oc2cc(F)ccc21` (single isomer, unassigned) [Compound 36, (S*)-(7-fluoro-10,11-dihydrobenzo[6,7]oxepino[3,2-b]pyridin-10-yl)methanamine], for which the EC50 at human TAAR1 receptors was below 1000 nM. Moreover, the IC50 was below 1000 nM on human 5-HT2A receptor (setting [1]) and at least 10000 nM at human 5-HT7 receptor.
With `CNC[C@H]1Cc2ncc(F)cc2Oc2ccccc21` (single isomer, unassigned) [Compound 38, (S*)-1-(3-fluoro-10,11-dihydrobenzo[6,7]oxepino[3,2-b]pyridin-10-yl)-N-methylmethanamine], the EC50 on human TAAR1 receptors lay in the range of 1000 to 10000 nM. Moreover, the IC50 is below 1000 nM on human 5-HT2A receptor (setting [3]) and 1000 to 10000 nM at human 5-HT7 receptor.
In turn, `NCC1Cc2ncc(F)cc2Oc2ccccc21` (single isomer, unassigned) [Compound 39, (R*)-(3-fluoro-10,11-dihydrobenzo[6,7]oxepino[3,2-b]pyridin-10-yl)methanamine] returned a 50% effective concentration (EC50) on human TAAR1 receptors of 1000 to 10000 nM. The IC50 was below 1000 nM on human 5-HT2A receptor (setting [1]) and at least 10000 nM on human 5-HT7 receptor.
